Reference: patent publication US20130288897A1, “SYNERGISTIC PESTICIDAL COMPOSITIONS” (Dow AgroSciences LLC, priority 2012, published 2013)

What was measured:
Type in all cases: in vivo
[1] = test system: cotton aphid (CA) Aphis gossypii; assay: Cotton aphid track-sprayer test on cotton: Compound A with glufosinate (Liberty) and AMS, rates 0.4, 0.1 and 0.025 g/Ha (Example XVIII); conditions: AMS 18 g/L, no insecticide, no Lib.
Experimental: (§1) Glyphosate resistant cotton plants (Gossypium hirsutum, cv ‘DP493’) were trimmed to 1 true leaf and infested with mixed stages of cotton aphid (CA) Aphis gossypii 24 hours prior to application. Mixed developmental stage CA were infested onto the upper surface of each treated leaf by transferring infested foliage from an insectary colony. Each plant was infested with approximately equal numbers of CA based on visual estimation of aphid density on the infested material. Infested plants were held in the growth chamber (L:D 16:8 and 25° C.). Glufosinate (Liberty®, Bayer CropScience, Monheim am Rhein, Germany) was mixed with water at a rate equivalent to 5 ml/L (0.4 qt/Ac). […] High rate Compound A concentrations were created by diluting Compound A technical material with acetone to achieve a 20 ppm solution. […] […] […] Nozzle height above the canopy was held constant at ca. 30 cm. Plants were evaluated after 3 days from the time of infestation by counting all live cotton aphids on each plant.

[2] = test system: cotton aphid (CA) Aphis gossypii; assay: Cotton aphid track-sprayer test on cotton: Compound A or imidacloprid with glufosinate (Liberty) and AMS (Example XVII); conditions: AMS 18 mg/ml, no insecticide, no glufosinate
Experimental: as §1, with “h” for “hours”, “10” for “20”
TABLE 6 contains the calculated Colby values for combinations of treatments as well as the outcome of statistical evaluations between predicted (Colby) and actual measured values. These T-test statistics were only calculated for the 0.2 and 0.05 g/Ha rates. […] These same trends were apparent when Compound A was applied with both glufosinate and AMS.

[3] = test system: cotton aphid (CA) Aphis gossypii; assay: Cotton aphid track-sprayer test on cotton: Compound A or imidacloprid with Durango (glyphosate) or Durango Blank and AMS (Example XVI); conditions: average of 5 reps
Experimental: as §1, with “24 h” for “24 hours”, “C.). Glyphosate (Durango®, Dow AgroSciences, LLC, Indianapolis, Ind.)” for “C.). Glufosinate (Liberty®, Bayer CropScience, Monheim am Rhein, Germany)”, “to 15” for “to 5”, “ml/L (1.2” for “ml/L (0.4”, “qt/Ac). […] A glyphosate free formulation of Durango® was prepared using these same mixing instructions.” for “qt/Ac).”, “a 10” for “a 20”
[…] Percent control for all treatments was calculated using the rep average for the untreated plants.

N.N.O=S(=O)(O)O [AMS, ammonium sulfate]
% Control (Negatives to zero) Ave [1]: 13.2% | % control AVE [2]: 4.5% | % control Ave ([3]; AMS 18 g/L alone, 0 g insecticide/Ha, block of Durango treatments): −7.0% | % control Ave ([3]; AMS 18 g/L alone, no insecticide, block of Durango Blank treatments): 13.3% | % control Ave ([3]; AMS 18 g/L with Durango Blank 0.015 ml/ml, no insecticide): 26.5%
